Measurements reported in patent US20240376085A1 (Janssen Pharmaceutica NV, priority 2021, published 2024).

Columns and labels:
IL-17A : IL-17RA binding = molecular target: T1, IL-17A : IL-17RA binding (Homo sapiens, UniProt Q16552, K93Q); assay: IL-17A(FLAG-tagged):IL-17RA(His-tagged) binding disruption Eu-HTRF assay, Protocol 1; details: FLAG-IL-17A 2.5 nM at 2x final concentration; average if tested more than once
T1 construct: Name: IL-17A-Flag
Summary of the method: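 IC50 came from a one-site competition fit of the acceptor/donor (665/620 nm) HTRF ratio. His-tagged IL-17RA, Eu-anti-FLAG and D2-anti-His were added after a 1 h rt compound preincubation with FLAG-tagged IL-17A dimer in PBS/0.01% Triton X-100, followed by 2 h at rt before reading.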

[1] = system: IL-17A-induced G-CSF production in human normal keratinocyte (NHK); assay: NHK assay: IL-17A-induced G-CSF production in normal human keratinocytes; assay type: cell-based; details: IL-17A 5 ng/mL, 24 h, average if tested more than once
Summary of the method: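 Stimulus rhIL-17A 5 ng/mL final, premixed 1 h rt with compound; adult NHK, 5% FBS, 0.2% DMSO. Viability by CellTiter-Glo vs DMSO.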

T1 sequence (Q16552 with tags, fused parts or gaps K93Q): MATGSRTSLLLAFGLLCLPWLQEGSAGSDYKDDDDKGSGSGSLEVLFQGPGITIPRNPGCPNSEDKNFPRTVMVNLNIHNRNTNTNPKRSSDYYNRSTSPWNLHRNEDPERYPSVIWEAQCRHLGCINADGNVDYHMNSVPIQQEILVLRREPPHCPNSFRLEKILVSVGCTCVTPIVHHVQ

Compound	IC50 (IL-17A : IL-17RA binding) [nM]	IC50 [1] [nM]	IC50 ([1]; Homo sapiens, Keratinocyte) [nM]
Cc1nonc1C(=O)N[C@@H](CC(C)(C)C(F)(F)F)c1nc2ccc([C@H](NC(=O)CC(C)C(F)(F)F)C3CC3)cc2[nH]1 (single isomer, unassigned) [Example 180, N—((S)-1-(6-((R)-Cyclopropyl((S*)-4,4,4-trifluoro-3-methylbutanamido)methyl)-1H-benzo[d]imidazol-2-yl)-4,4,4-trifluoro-3,3-dimethylbutyl)-4-methyl-1,2,5-oxadiazole-3-carboxamide]	50 to 100	> 100	
CC(C)n1ncnc1C(=O)NC(CC(C)(C)C(F)(F)F)c1nc2cc([C@@H](C)NC(=O)CCC(F)(F)F)ccc2[nH]1 (single isomer, unassigned) [Example 196, 1-Isopropyl-N—((S*)-4,4,4-trifluoro-3,3-dimethyl-1-(5-((R)-1-(4,4,4-trifluorobutanamido)ethyl)-1H-benzo[d]imidazol-2-yl)butyl)-1H-1,2,4-triazole-5-carboxamide]	> 100		> 100
C[C@@H](NC(=O)CCC(F)(F)F)c1ccc2[nH]c([C@@H](NC(=O)CC3CC3(F)F)C3CCC(F)(F)CC3)nc2c1 (single isomer, unassigned) [Example 107, N—((R)-1-(2-((S)-(4,4-Difluorocyclohexyl)(2-((R*)-2,2-difluorocyclopropyl)acetamido)methyl)-1H-benzo[d]imidazol-5-yl)ethyl)-4,4,4-trifluorobutanamide]	> 100		> 100
C[C@@H](NC(=O)CC(C)(C)C)c1ccc2[nH]c([C@@H](NC(=O)c3ccnn3C)C3CCC(F)(F)CC3)nc2c1 [Example 117, N—((S)-(4,4-Difluorocyclohexyl)(5-((R)-1-(3,3-dimethylbutanamido)ethyl)-1H-benzo[d]imidazol-2-yl)methyl)-1-methyl-1H-pyrazole-5-carboxamide]	> 100		> 100
C[C@@H](O[C@H](C)C(F)(F)F)[C@H](NC(=O)c1nonc1C1CC1)c1nc2ccc([C@H](NC(=O)C[C@H]3CC3(F)F)C3(C#N)CC3)cc2[nH]1 [Example 269, N-((1R,2R)-1-(6-((S)-(1-Cyanocyclopropyl)(2-((S)-2,2-difluorocyclopropyl)acetamido)methyl)-1H-benzo[d]imidazol-2-yl)-2-(((R)-1,1,1-trifluoropropan-2-yl)oxy)propyl)-4-cyclopropyl-1,2,5-oxadiazole-3-carboxamide]	< 50		< 50
Cc1nonc1C(=O)N[C@@H](COC(C)(C)C(F)(F)F)c1nc2ccc([C@H](NC(=O)CC3CC(F)(F)C3)C3CC3)cc2[nH]1 (relative stereo) [Example 161, N—((R*)-1-(6-((R)-Cyclopropyl(2-(3,3-difluorocyclobutyl)acetamido)methyl)-1H-benzo[d]imidazol-2-yl)-2-((1,1,1-trifluoro-2-methylpropan-2-yl)oxy)ethyl)-4-methyl-1,2,5-oxadiazole-3-carboxamide]	< 50		50 to 100
CC(C)n1nccc1C(=O)N[C@H](c1nc2ccc([C@H](NC(=O)CC3CC(F)(F)C3)C3CC3)cc2[nH]1)[C@@H]1C[C@H]2C[C@H]2C1 [Example 255, N—((S)-((1R,3s,5S)-Bicyclo[3.1.0]hexan-3-yl)(6-((R)-cyclopropyl(2-(3,3-difluorocyclobutyl)acetamido)methyl)-1H-benzo[d]imidazol-2-yl)methyl)-1-isopropyl-1H-pyrazole-5-carboxamide]	50 to 100		< 50
C[C@@H](NC(=O)CCC(F)(F)F)c1ccc2nc([C@@H](NC(=O)c3ccccc3)C3CCC(F)(F)CC3)[nH]c2c1 [Example 120, N—((S)-(4,4-Difluorocyclohexyl)(6-((R)-1-(4,4,4-trifluorobutanamido)ethyl)-1H-benzo[d]imidazol-2-yl)methyl)benzamide]	> 100		50 to 100
C[C@@H](NC(=O)CCC(F)(F)F)c1ccc2[nH]c([C@@H](NC(=O)c3cn(CC4CCC4)nc3C(N)=O)C3CCC(F)(F)CC3)nc2c1 [Example 89, 1-(Cyclobutylmethyl)-N^4—((S)-(4,4-difluorocyclohexyl)(5-((R)-1-(4,4,4-trifluorobutanamido)ethyl)-1H-benzo[d]imidazol-2-yl)methyl)-1H-pyrazole-3,4-dicarboxamide]	> 100		> 100
C[C@@H](NC(=O)CC(C(F)(F)F)C(F)(F)F)c1ccc2nc([C@@H](NC(=O)c3cccc(C#N)c3)C3CCC(F)(F)CC3)[nH]c2c1 [Example 132, 3-Cyano-N—((S)-(4,4-difluorocyclohexyl)(6-((R)-1-(4,4,4-trifluoro-3-(trifluoromethyl)butanamido)ethyl)-1H-benzo[d]imidazol-2-yl)methyl)benzamide]	> 100		> 100
CC(C)c1snnc1C(=O)N[C@H](c1nc2cc([C@@H](C)NC(=O)CCC(F)(F)F)ccc2[nH]1)C1CCC(F)(F)CC1 [Example 206, N—((S)-(4,4-Difluorocyclohexyl)(5-((R)-1-(4,4,4-trifluorobutanamido)ethyl)-1H-benzo[d]imidazol-2-yl)methyl)-5-isopropyl-1,2,3-thiadiazole-4-carboxamide]	50 to 100		< 50
C[C@@H](NC(=O)CCC(F)(F)F)c1ccc2[nH]c([C@@H](NC(=O)C3(C)CC3)C3CCC(F)(F)CC3)nc2c1 [Example 95, N—((S)-(4,4-Difluorocyclohexyl)(5-((R)-1-(4,4,4-trifluorobutanamido)ethyl)-1H-benzo[d]imidazol-2-yl)methyl)-1-methylcyclopropane-1-carboxamide]	> 100		> 100
CC(C)n1nccc1C(=O)NC(COC(C)(C)C(F)(F)F)c1nc2ccc([C@H](NC(=O)CC3CC(F)(F)C3)C3CC3)cc2[nH]1 (single isomer, unassigned) [Example 162, N—((S*)-1-(6-((R)-Cyclopropyl(2-(3,3-difluorocyclobutyl)acetamido)methyl)-1H-benzo[d]imidazol-2-yl)-2-((1,1,1-trifluoro-2-methylpropan-2-yl)oxy)ethyl)-1-isopropyl-1H-pyrazole-5-carboxamide]	> 100		> 100
C[C@@H](NC(=O)CCC(F)(F)F)c1ccc2[nH]c(C(CC(C)(C)C(F)(F)F)NC(=O)c3cnn(CC4CC4)n3)nc2c1 (single isomer, unassigned) [Example 191, 2-(Cyclopropylmethyl)-N—((R*)-4,4,4-trifluoro-3,3-dimethyl-1-(5-((R)-1-(4,4,4-trifluorobutanamido)ethyl)-1H-benzo[d]imidazol-2-yl)butyl)-2H-1,2,3-triazole-4-carboxamide]	> 100		> 100
CC(CC(=O)N[C@H](C)c1ccc2nc([C@@H](NC(=O)c3cc(F)ccc3F)C3CCC(F)(F)CC3)[nH]c2c1)C(F)(F)F (single isomer, unassigned) [Example 140, N—((S)-(4,4-Difluorocyclohexyl)(6-((R)-1-((S*)-4,4,4-trifluoro-3-methylbutanamido)ethyl)-1H-benzo[d]imidazol-2-yl)methyl)-2,5-difluorobenzamide]	> 100	> 100	
CC(Cn1nncc1C(=O)N[C@H](c1nc2ccc([C@@H](C)NC(=O)CCC(F)(F)F)cc2[nH]1)C1CCC(F)(F)CC1)C(F)(F)F (single isomer, unassigned) [Example 72, N—((S)-(4,4-Difluorocyclohexyl)(6-((R)-1-(4,4,4-trifluorobutanamido)ethyl)-1H-benzo[d]imidazol-2-yl)methyl)-1-((S*)-3,3,3-trifluoro-2-methylpropyl)-1H-1,2,3-triazole-5-carboxamide]	> 100	> 100	
CC(CC(=O)N[C@@H](c1ccc2[nH]c([C@H](COC(C)(C)C(F)(F)F)NC(=O)c3nonc3C3CC3)nc2c1)C1CC1)C(F)F (single isomer, unassigned) [Example 176, 4-Cyclopropyl-N—((R)-1-(5-((R)-cyclopropyl((S*)-4,4-difluoro-3-methylbutanamido)methyl)-1H-benzo[d]imidazol-2-yl)-2-((1,1,1-trifluoro-2-methylpropan-2-yl)oxy)ethyl)-1,2,5-oxadiazole-3-carboxamide]	< 50	> 100	
CC(C)n1nccc1C(=O)N[C@H](c1nc2cc([C@H](NC(=O)CC3CC(F)(F)C3)C3CC3)ccc2[nH]1)C1CCC(F)(F)CC1 [Example 142, N—((S)-(5-((R)-Cyclopropyl(2-(3,3-difluorocyclobutyl)acetamido)methyl)-1H-benzo[d]imidazol-2-yl)(4,4-difluorocyclohexyl)methyl)-1-isopropyl-1H-pyrazole-5-carboxamide]	50 to 100		< 50
C[C@@H](NC(=O)CCC(F)(F)F)c1ccc2[nH]c([C@@H](NC(=O)c3cnnn3CCCC(F)(F)F)C3CCC(F)(F)CC3)nc2c1 [Example 20, N—[(S)-(4,4-Difluorocyclohexyl)-[6-[(1R)-1-(4,4,4-trifluorobutanoylamino)ethyl]-1H-benzimidazol-2-yl]methyl]-3-(4,4,4-trifluorobutyl)triazole-4-carboxamide]	> 100		50 to 100
C[C@@H](NC(=O)CCC(F)(F)F)c1ccc2[nH]c([C@@H](NC(=O)c3cn(CC45CC(C#N)(C4)C5)nn3)C3CCC(F)(F)CC3)nc2c1 [Example 79, 1-((3-Cyanobicyclo[1.1.1]pentan-1-yl)methyl)-N—((S)-(4,4-difluorocyclohexyl)(5-((R)-1-(4,4,4-trifluorobutanamido)ethyl)-1H-benzo[d]imidazol-2-yl)methyl)-1H-1,2,3-triazole-4-carboxamide]	> 100		> 100
